One may read the Km as the substrate concentration at which the rate is half of its maximum.

Among the data in publication PMC6988263 (Parasites & Vectors, 2020) are Km values, retold here.

In the experiment the target is T1, rHc-HRG-2 (recombinant Hc-HRG-2) (Haemonchus contortus, UniProt A0A7I5E8W1).
T1 construct: vector His tag), expressed in E. coli, Ni-NTA purified
The experiment is described as follows: GSH-CDNB conjugation, absorbance at […] nm. The experiment is classed as biochemical. The note with it: 1 mM GSH, 0.1 M potassium phosphate pH 6.5, 10 μM protein.

T1 sequence (A0A7I5E8W1 entry or part of it): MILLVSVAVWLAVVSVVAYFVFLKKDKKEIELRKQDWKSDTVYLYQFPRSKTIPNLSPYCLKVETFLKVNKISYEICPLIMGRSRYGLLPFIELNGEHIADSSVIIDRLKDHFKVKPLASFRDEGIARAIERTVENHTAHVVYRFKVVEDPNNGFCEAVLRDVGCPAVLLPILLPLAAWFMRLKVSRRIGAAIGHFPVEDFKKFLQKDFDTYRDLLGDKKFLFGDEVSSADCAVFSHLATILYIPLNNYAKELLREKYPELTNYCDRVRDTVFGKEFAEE

`O=[N+]([O-])c1ccc(Cl)c([N+](=O)[O-])c1` [CDNB, 1-chloro-2,4-dinitrobenzene]: the Km was 508 ± 34.1 µM.
